Experimental data taken from patent publication US20250090540A1, “PI3K-ALPHA INHIBITORS AND METHODS OF USE THEREOF” (Relay Therapeutics, Inc., priority 2021, published 2025).

target: H1047R PIK3CA enzyme (Homo sapiens, UniProt P42336, H1047R); assay: ADP-Glo Biochemical PIK3CA Kinase Assay; settings: not given
Sequence (P42336 whole entry H1047R): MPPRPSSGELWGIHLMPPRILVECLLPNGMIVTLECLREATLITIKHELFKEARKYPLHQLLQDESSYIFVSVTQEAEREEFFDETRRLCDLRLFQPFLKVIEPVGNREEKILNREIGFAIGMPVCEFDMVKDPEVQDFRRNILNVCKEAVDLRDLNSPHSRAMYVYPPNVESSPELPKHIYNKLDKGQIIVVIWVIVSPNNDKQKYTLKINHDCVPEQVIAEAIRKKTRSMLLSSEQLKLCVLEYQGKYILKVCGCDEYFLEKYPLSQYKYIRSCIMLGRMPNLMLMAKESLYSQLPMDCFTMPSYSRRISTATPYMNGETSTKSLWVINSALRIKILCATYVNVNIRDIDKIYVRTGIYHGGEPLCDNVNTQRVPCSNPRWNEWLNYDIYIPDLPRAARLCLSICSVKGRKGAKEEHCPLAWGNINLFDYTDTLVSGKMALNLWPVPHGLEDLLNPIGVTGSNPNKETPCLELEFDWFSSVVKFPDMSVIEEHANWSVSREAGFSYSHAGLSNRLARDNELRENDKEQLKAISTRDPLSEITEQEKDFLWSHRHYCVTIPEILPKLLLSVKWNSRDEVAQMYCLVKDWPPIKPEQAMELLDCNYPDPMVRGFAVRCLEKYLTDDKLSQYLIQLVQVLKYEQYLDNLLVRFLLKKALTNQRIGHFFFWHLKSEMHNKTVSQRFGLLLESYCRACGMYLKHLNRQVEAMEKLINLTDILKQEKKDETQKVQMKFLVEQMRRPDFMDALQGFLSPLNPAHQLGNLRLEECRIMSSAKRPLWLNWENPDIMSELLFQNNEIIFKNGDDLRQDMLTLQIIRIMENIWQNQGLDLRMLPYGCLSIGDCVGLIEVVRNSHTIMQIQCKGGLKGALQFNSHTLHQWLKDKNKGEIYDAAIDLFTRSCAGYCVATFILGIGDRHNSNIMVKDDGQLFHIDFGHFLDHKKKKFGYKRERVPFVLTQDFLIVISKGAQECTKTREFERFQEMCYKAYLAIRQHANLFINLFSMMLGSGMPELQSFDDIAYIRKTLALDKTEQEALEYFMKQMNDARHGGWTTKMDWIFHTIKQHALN
Sequence (P27986 whole entry partner): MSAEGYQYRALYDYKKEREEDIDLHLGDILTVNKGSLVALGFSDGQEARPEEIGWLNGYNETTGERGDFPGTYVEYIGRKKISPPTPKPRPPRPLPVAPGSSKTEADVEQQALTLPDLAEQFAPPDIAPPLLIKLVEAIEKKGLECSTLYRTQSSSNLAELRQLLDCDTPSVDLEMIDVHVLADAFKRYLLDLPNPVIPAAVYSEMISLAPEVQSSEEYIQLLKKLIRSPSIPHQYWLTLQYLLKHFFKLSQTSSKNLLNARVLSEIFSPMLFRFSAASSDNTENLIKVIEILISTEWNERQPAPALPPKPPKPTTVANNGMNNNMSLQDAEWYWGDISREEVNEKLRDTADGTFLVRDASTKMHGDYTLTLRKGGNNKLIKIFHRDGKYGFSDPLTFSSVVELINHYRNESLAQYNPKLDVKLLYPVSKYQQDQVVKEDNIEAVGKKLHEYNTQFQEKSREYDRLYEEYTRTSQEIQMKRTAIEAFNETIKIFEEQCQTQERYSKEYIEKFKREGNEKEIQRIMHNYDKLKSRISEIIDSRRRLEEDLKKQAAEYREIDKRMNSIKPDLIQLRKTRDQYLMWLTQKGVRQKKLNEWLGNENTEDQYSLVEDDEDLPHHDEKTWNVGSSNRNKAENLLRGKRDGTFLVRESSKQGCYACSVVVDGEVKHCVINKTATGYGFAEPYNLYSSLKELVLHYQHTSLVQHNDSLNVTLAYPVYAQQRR

IC50 [µM]	SMILES
10 to 100	CNC(=O)c1cnc(Nc2ccccc2C)c(NC(=O)c2cccc(C(F)(F)F)n2)c1 [I-376]
10 to 100	CNC(=O)c1cnc(Nc2ccccc2C)c(NC(=O)c2ccc(Cl)c(C#N)c2)c1 [I-382]
10 to 100	CNC(=O)c1cnc(Nc2ccccc2C)c(NC(=O)Cc2ccccc2S(C)(=O)=O)c1 [I-306]
10 to 100	CNC(=O)c1cnc(Nc2ccccc2C)c(NC(=O)CC2OCCc3ccccc32)c1 (centres unmarked) [I-387]
10 to 100	CNC(=O)c1cnc(Nc2ccccc2C)c(NC(=O)c2cccnc2C(F)(F)F)c1 [I-371]
1 to 10	CNC(=O)c1cnc(Nc2ccccc2C)c(NS(=O)(=O)c2ccccc2)c1 [I-20]
0.5 to 1	CNC(=O)c1cnc(Nc2ccccc2C)c(NC(=O)c2cc(F)cc(Br)c2)c1 [I-2]
10 to 100	CNC(=O)c1cnc(Nc2ccccc2C)c(NC(=O)c2cccc3cnccc23)c1 [I-237]
10 to 100	CNC(=O)c1cnc(Nc2ccccc2C)c(NC(=O)c2csc(N)n2)c1 [I-243]
10 to 100	CNC(=O)c1cnc(Nc2ccccc2C)c(NC(=O)c2ccc3ccccc3c2)c1 [I-182]
10 to 100	CNC(=O)c1cnc(Nc2ccccc2C)c(NC(=O)c2csc(C(F)(F)F)n2)c1 [I-241]
10 to 100	CNC(=O)c1cnc(Nc2ccccc2C)c(NC(=O)C2CCNc3ccccc32)c1 (centres unmarked) [I-386]
0.5 to 1	Cc1ccccc1Nc1ncc(C(=O)Nc2cc[nH]c(=O)n2)cc1NC(=O)c1csc2ccccc12 [I-194]
10 to 100	CNC(=O)c1cnc(Nc2ccccc2C)c(NC(=O)c2ncn3ccccc23)c1 [I-48]
10 to 100	CNC(=O)c1cnc(Nc2ccccc2C)c(NC(=O)c2csc3cc(OC)ccc23)c1 [I-355]
10 to 100	CNC(=O)c1cnc(Nc2ccccc2C)c(NC(=O)c2c[nH]c3ccccc23)c1 [I-87]
10 to 100	CNC(=O)c1cnc(Nc2ccccc2C)c(NC(=O)C2(c3ccccn3)CC2)c1 [I-333]

The remaining lines, values behind:

SMILES	IC50 [µM]
Cc1ccc(Nc2ncc(C(=O)NCc3ccnn3C)cc2NC(=O)c2csc3ccccc23)cc1 [I-261]	1 to 10
Cc1ccccc1Nc1ncc(C#N)cc1NC(=O)c1cc(F)cc(C(F)(F)F)c1 [I-49]	1 to 10
Cc1ccccc1Nc1ncc(C(=O)NCCO)cc1NC(=O)c1cc(F)cc(C(F)(F)F)c1 [I-86]	0.5 to 1
O=C1C[C@H](CCO)[C@@H](CNC(=O)c2cc(F)cc(C(F)(F)F)c2)[C@H](c2cc(F)ccc2Cl)N1 (racemic) [I-821]	10 to 100
CNC(=O)c1cnc(NCc2nccn2C)c(NC(=O)c2cc(F)cc(C(F)(F)F)c2)c1 [I-185]	10 to 100
Cc1ccccc1Nc1ncc(-c2cnn(C3CCN(C(=O)OC(C)(C)C)CC3)c2)cc1NC(=O)c1cc(F)cc(C(F)(F)F)c1 [I-90]	1 to 10
Cc1ccccc1Nc1ncc(-c2cnn(C)c2)cc1NC(=O)c1ccc2cc[nH]c2c1 [I-103]	10 to 100
CNC(=O)c1cnc(Nc2ccccc2C#N)c(NC(=O)c2cc(F)cc(C(F)(F)F)c2)c1 [I-38]	10 to 100
Cc1ccccc1Nc1ncc(-c2cnn(C)c2)cc1NC(=O)c1cccc(C(F)(F)F)c1 [I-110]	1 to 10
CNC(=O)c1cnc(Nc2cc(F)ccc2Cl)c(Nc2nccc3c(Cl)cccc23)c1 [I-805, 6-((2-chloro-5-fluorophenyl)amino)-5-((5-chloroisoquinolin-1-yl)amino)-N-methylnicotinamide]	10 to 100
Cc1ccccc1Nc1ncc(-c2cnn(C)c2)cc1Nc1ncnn2cccc12 [I-61]	10 to 100
O=C(Nc1cccc(=O)n1Cc1ccccc1)c1csc2ccccc12 [I-321]	10 to 100
Cc1ccccc1Nc1ncc(-c2cnn(C)c2)cc1NC(=O)c1ccccc1OC(F)(F)F [I-111]	10 to 100
CC1CCc2ccccc2N1c1ncc(C(=O)NC2CS(=O)(=O)C2)cc1NC(=O)c1csc2ccccc12 (centres unmarked) [I-216]	1 to 10
Cc1ccccc1Nc1ncc(-c2cnn(C)c2)cc1NC(=O)c1ccc(C#N)cc1 [I-106]	10 to 100
Cc1ccccc1Nc1ncc(CO)cc1NC(=O)c1cc(F)cc(C(F)(F)F)c1 [I-63]	1 to 10
CNC(=O)c1cnc(Nc2ccc(OC)cc2)c(NC(=O)c2cc(F)cc(C(F)(F)F)c2)c1 [I-174]	10 to 100
COc1cccc(C(=O)Nc2cc(-c3cnn(C)c3)cnc2Nc2ccccc2C)c1 [I-124]	10 to 100
CC(C)(C)OC(=O)N1CCC(Nc2ncccc2NC(=O)c2csc3ccccc23)CC1 [I-151]	10 to 100

SMILES	IC50 [µM]
Cc1ccccc1Nc1ncc(NCC#N)cc1NC(=O)c1cc(F)cc(C(F)(F)F)c1 [I-155]	0.5 to 1
Cc1ccccc1Nc1ncc(-c2cnn(C)c2)cc1NS(=O)(=O)c1ccccc1 [I-172]	10 to 100
CNC(=O)c1cnc(N2CC3CCCN3CC2C)c(NC(=O)c2cc(F)cc(C(F)(F)F)c2)c1 (centres unmarked) [I-202]	10 to 100
Cc1ccccc1Nc1ncc(-c2cnn(C)c2)cc1NC(=O)c1cc(F)cc(Cl)c1 [I-97]	0.5 to 1
O=C(Nc1cccnc1NC1CCNCC1)c1csc2ccccc12 [I-152]	10 to 100
Cc1ccccc1N[C@H]1CCN(C(=O)CC2CCOCC2)C[C@@H]1C(=O)Nc1cc(F)cc(C(F)(F)F)c1 (racemic) [I-254]	10 to 100
Cc1ccccc1Nc1ncc(-c2cnn(C)c2)cc1NC(=O)c1ccccc1O [I-130]	10 to 100
Cc1ccccc1Nc1ncc(-c2cnn(C)c2)cc1NC(=O)c1cc(F)cc(Br)c1 [I-96]	0.5 to 1
CCn1nc(C(=O)Nc2cc(C(=O)NC)cnc2Nc2ccccc2C)c2ccccc21 [I-375]	10 to 100
O=C(Nc1cccnc1NCc1ccccc1)c1csc2ccccc12 [I-133]	10 to 100
Cn1cc(NC(=O)c2csc3ccccc23)c(N2CCOc3ccccc32)cc1=O [I-272]	1 to 10
Cc1cnc(Nc2ccccc2C)c(NC(=O)c2cc(F)cc(C(F)(F)F)c2)c1 [I-19]	10 to 100
Cc1ccccc1Nc1ncc(C(=O)Nc2ccncn2)cc1NC(=O)c1cc(F)cc(C(F)(F)F)c1 [I-262]	0.5 to 1
Cc1ccc(NC(=O)c2cc(F)cc(C(F)(F)F)c2)c(Nc2ccccc2C)n1 [I-59]	1 to 10
CNC(=O)c1cnc(Nc2cccc(C)c2)c(NC(=O)c2cc(F)cc(C(F)(F)F)c2)c1 [I-39]	1 to 10
Cc1ccc(Nc2ncc(C(=O)NCc3cnn(C)c3)cc2NC(=O)c2csc3ccccc23)cc1 [I-224]	10 to 100
Cc1ccccc1Nc1ncc(-c2cnn(C)c2)cc1NC(=O)c1cccc2c1cnn2C [I-100]	10 to 100
CNC(=O)c1cnc(NC(CO)CCO)c(NC(=O)c2cc(F)cc(C(F)(F)F)c2)c1 (centres unmarked) [I-814]	10 to 100

same assay, conditions: ADP-Glo biochemical PIK3CA kinase assay

IC50 [µM]	SMILES
1 to 10	CNC(=O)c1cnc(Nc2ccc3cnn(C)c3c2)c(NC(=O)c2csc3ccccc23)c1 [I-736]
10 to 100	CNC(=O)c1cnc(Nc2ccccc2C)c(NC(=O)Cc2csc3ccccc23)c1 [I-410]
10 to 100	CNC(=O)c1cnc(Nc2ccccc2C)c(NC(=O)c2cnn3cc(F)ccc23)c1 [I-420]
10 to 100	CNC(=O)c1cnc(Nc2ccccc2C)c(NC(=O)c2cc3c(Br)cccc3[nH]2)c1 [I-485]
1 to 10	CNC(=O)c1cnc(Nc2ccccc2C)c(NC(=O)Cc2noc3ccccc23)c1 [I-651]
10 to 100	CNC(=O)c1cnc(Nc2ccccc2C)c(NC(=O)c2[nH]c3ccccc3c2Br)c1 [I-522]
0.5 to 1	Cc1ccccc1Nc1ncc(C(=O)N2CCC(F)C2)cc1NC(=O)c1csc2ccccc12 (centres unmarked) [I-623]
1 to 10	CNC(=O)c1cnc(Nc2ccccc2C)c(NC(=O)c2ccnc(C(F)F)c2)c1 [I-650]
10 to 100	Cc1ccccc1Nc1ncc(C(=O)Nc2c3c(nn2C)CCC3)cc1NC(=O)c1csc2ccccc12 [I-521]
10 to 100	CNC(=O)c1cnc(Nc2ccccc2C)c(NC(=O)c2cc3cc(F)ccc3o2)c1 [I-488]
1 to 10	Cc1ccccc1Nc1ncc(C(=O)NCC(C)(C)O)cc1NC(=O)c1csc2ccccc12 [I-565]
10 to 100	Cc1ccccc1Nc1ncc(C(=O)NC2CCOc3ccccc32)cc1NC(=O)c1csc2ccccc12 (centres unmarked) [I-487]
1 to 10	CNC(=O)c1cnc(Nc2ncccc2C2CC2)c(NC(=O)c2csc3ccccc23)c1 [I-742]
1 to 10	CNC(=O)c1cnc(Nc2cncc(F)c2)c(NC(=O)c2csc3ccccc23)c1 [I-739]
10 to 100	CNC(=O)c1cnc(Nc2ccccc2C)c(NC(=O)c2ccnc3c(F)cccc23)c1 [I-438]
1 to 10	CNC(=O)c1cnc(Nc2ccc3cccnc3c2)c(NC(=O)c2csc3ccccc23)c1 [I-740]
10 to 100	CNC(=O)c1cnc(Nc2ccccc2C)c(NC(=O)c2csc3cc(F)cc(F)c23)c1 [I-404]
0.5 to 1	Cc1ccccc1Nc1ncc(C(=O)NCC2(O)CCCC2)cc1NC(=O)c1csc2ccccc12 [I-562]
1 to 10	CNC(=O)c1cnc(Nc2ccccc2C)c(NC(=O)c2cc(C)cc(C#N)c2)c1 [I-556]
10 to 100	CNC(=O)c1cnc(Nc2cccnc2OC)c(NC(=O)c2csc3ccccc23)c1 [I-400]
10 to 100	CNC(=O)c1cnc(Nc2ccccc2C)c(NC(=O)c2ccc3c(c2)COC3)c1 [I-447]
1 to 10	CNC(=O)c1cnc(Nc2ccccc2C)c(NC(=O)CCc2ccncc2C)c1 [I-643]

More lines, now with the values behind:

SMILES	IC50 [µM]
Cc1ccccc1[C@H]1NC(=O)C[C@@H]1C(=O)Nc1cc(F)cc(C(F)(F)F)c1 (racemic) [I-669]	1 to 10
COC(=O)CCS(=O)(=O)c1cnc(Nc2ccccc2C)c(NC(=O)c2cc(F)cc(C(F)(F)F)c2)c1 [I-728]	1 to 10
O=C(Nc1cc(C2CC2)nn1-c1ccccc1F)c1cc(F)cc(C(F)(F)F)c1 [I-788]	10 to 100
CNC(=O)c1cnc(Nc2ccccc2C)c(NC(=O)c2ccc(C(F)(F)F)n2C)c1 [I-524]	10 to 100
CNC(=O)c1cnc(Nc2ccccc2C)c(NC(=O)c2nn(C)c(C3CC3)c2F)c1 [I-439]	10 to 100
CC(C)(O)c1cnc(Nc2cc(F)ccc2Cl)c(NC(=O)c2cc(F)cc(C(F)(F)F)c2)c1 [I-782]	1 to 10
CNC(=O)c1cnc(Nc2ccccc2C)c(NC(=O)c2cn(C)nc2C(F)F)c1 [I-417]	10 to 100
CNC(=O)c1cnc(Nc2ccccc2C)c(NC(=O)c2nn(C(C)C)c3ccccc23)c1 [I-457]	10 to 100
O=C(O)c1cnc(N2CCOc3ccccc32)c(NC(=O)c2csc3ccccc23)c1 [I-631]	1 to 10
CNC(=O)c1cnc(Nc2ccccc2C)c(NC(=O)c2cc(C)cc(F)c2F)c1 [I-491]	10 to 100
